{"source": "patent US8785419B2", "about": "“Cavity induced allosteric modification of intermolecular interactions and methods of identifying compounds that effect the same” (The Trustees Of The University Of Pennsylvania, priority 1998, dated 2014)", "test_system": "T cell activation associated with MHC/antigen/TCR complexes", "assay": "In vitro T cell activation assays", "format": "cell-based"}
{"molecule": "O=C(CNC(=O)N1CCCC1)NNC(=O)Nc1ccc2ccccc2c1", "note": "[Formula IV]", "values": [{"measurement": "activity in in vitro T cell activation assays", "value": "showed activity"}]}
